Laboratory results as given in paper PMC7899551, “Phase 1 study of Z-endoxifen in patients with advanced gynecologic, desmoid, and hormone receptor-positive solid tumors” (Oncotarget, 2021).
Values joined by “and” are separate entries in the source; they are usually repeats but may differ in a detail not shown here. Equal entries are not always repeated. Where two headings read alike, the source gives them in different places.

Assay: Plasma pharmacokinetics of Z-endoxifen (HPLC assay, non-compartmental analysis)
Type: in vivo, human
Method: This was an open-label trial of Z-endoxifen in patients with advanced solid tumors (https://clinicaltrials.gov/ identifier: NCT01273168). Z-endoxifen-HCl was supplied by the Pharmaceutical Management Branch, National Cancer Institute, as 20 and 40 mg capsules; agent was administered orally once daily on a continuous schedule in 28-day cycles with a starting dose of 20 mg/day taken either 1 hour before or 2 hours after meals. Dose escalation followed a traditional 3+3 design in which patients were dose-escalated to the next dose level (DL) in cohorts of 3 patients until dose-limiting toxicity (DLT) was observed. DLT was defined as an adverse event that occurred during cycle 1, was thought to be related to study drug administration, and met one of the following criteria: grade ≥ 3 non-hematologic toxicities (except diarrhea, nausea and vomiting, alopecia, rising creatinine or electrolyte toxicities that resolved within 24 hours, or intolerable estrogen withdrawal symptoms) or grade ≥ 3 hematologic toxicities (except neutropenia lasting less than 5 days, lymphopenia, or anemia). Eight dose levels (DL1-8) were examined: 20, 40, 60, 100, 140, 200, 280, and 360 mg, respectively. Two patients at DL8 received the free base form of Z-endoxifen on day 1 rather than the hydrochloride salt to assess the pharmacokinetics of that formulation.
A 3-mL blood sample was collected in a K2 EDTA tube on day 1 of cycle 1 before drug administration and at the following times post-first dose: 0.5, 1, 2, 3, 4, 6, 8, and 24 hours. Samples were collected at the same time points on day 28 of cycle 1 for DL1-6 until a protocol amendment eliminated the requirement for these samples at the higher dose levels. Samples were wrapped in aluminum foil after collection to protect from light exposure. A 10-mL aliquot of urine was collected before agent administration on cycle 1 day 1, for 24 hours after dosing on day 1, and before drug administration on cycle 2 day 1; samples were refrigerated prior to analysis.
Plasma and urine concentrations of Z- and E-endoxifen were measured using a validated, post-column fluorescence derivatization HPLC assay. Non-compartmental pharmacokinetic parameters were calculated using WinNonlin version 7.0 (Pharsight Corp., Mountainview, CA, USA). A 2 μM Cmax target was established for day 28 plasma concentration. The amount of Z-endoxifen excreted in urine was measured over a 24-hour collection period.

[1] = DL1 20 mg oral, day 1, individual patients, listed as Z-endoxifen HCl
[2] = DL1 20 mg/day oral, day 28, individual patients, listed as Z-endoxifen HCl
[3] = DL2 40 mg oral, day 1, individual patients, listed as Z-endoxifen HCl
[4] = DL2 40 mg/day oral, day 28, individual patients, listed as Z-endoxifen HCl
[5] = DL3 60 mg oral, day 1, individual patients, listed as Z-endoxifen HCl
[6] = DL3 60 mg/day oral, day 28, individual patients, listed as Z-endoxifen HCl
[7] = DL4 100 mg oral, day 1, individual patients, listed as Z-endoxifen HCl
[8] = DL5 140 mg oral, day 1, individual patients, listed as Z-endoxifen HCl
[9] = DL5 140 mg/day oral, day 28, individual patients, listed as Z-endoxifen HCl
[10] = DL6 200 mg oral, day 1, individual patients, listed as Z-endoxifen HCl
[11] = DL6 200 mg/day oral, day 28, individual patients, listed as Z-endoxifen HCl
[12] = DL7 280 mg oral, day 1, individual patients, listed as Z-endoxifen HCl
[13] = DL8 360 mg oral, day 1, individual patients, listed as Z-endoxifen HCl

CC/C(=C(\c1ccc(O)cc1)c1ccc(OCCNC)cc1)c1ccccc1 [Z-endoxifen]
AUC(0-24h) [1]: 1055 ng·h/mL and 1169 ng·h/mL | C24h [1]: 32.6 ng/mL and 32.7 ng/mL | Cmax [1]: 61.2 ng/mL and 67.7 ng/mL | AUC(0-24h) [2]: 4469 ng·h/mL and 5313 ng·h/mL | Adjusted Half-Life [2]: 61.8 h and 67.0 h | C24h [2]: 48.8 ng/mL and 139.6 ng/mL and 206.6 ng/mL | Cmax [2]: 283.7 ng/mL and 374.1 ng/mL | Tmax [2]: 0.0 h | AUC(0-24h) [3]: 1715 ng·h/mL and 1336 ng·h/mL and 1764 ng·h/mL and 2162 ng·h/mL | C24h [3]: 43.6 ng/mL and 54.9 ng/mL and 33.7 ng/mL and 55.2 ng/mL and 75 ng/mL | Cmax [3]: 121.1 ng/mL and 93.8 ng/mL and 102.3 ng/mL and 160.3 ng/mL | AUC(0-24h) [4]: 3871 ng·h/mL and 4832 ng·h/mL | Adjusted Half-Life [4]: 36.6 h | C24h [4]: 111.8 ng/mL and 194.5 ng/mL | Cmax [4]: 231.8 ng/mL and 220.7 ng/mL | Tmax [4]: 3.0 h | Adjusted Half-Life, Mean (DL2 40 mg/day oral, day 28, mean): 40.4 h | AUC(0-24h) [5]: 1953 ng·h/mL and 2836 ng·h/mL | C24h [5]: 72.2 ng/mL and 86.2 ng/mL | Cmax [5]: 109.0 ng/mL and 166.0 ng/mL | Tmax [5]: 24.0 h and 6.1 h | AUC(0-24h) [6]: 3432 ng·h/mL and 9961 ng·h/mL and 10846 ng·h/mL | Adjusted Half-Life [6]: 26.0 h and 76.2 h and 54.9 h | C24h [6]: 169.4 ng/mL and 521.2 ng/mL and 345.6 ng/mL | Cmax [6]: 199.6 ng/mL and 521.2 ng/mL and 531.1 ng/mL | Tmax [6]: 0.5 h and 24.0 h | Adjusted Half-Life, Mean (DL3 60 mg/day oral, day 28, mean): 52.4 h | AUC(0-24h) [7]: 4834 ng·h/mL and 5511 ng·h/mL | C24h [7]: 157 ng/mL and 175 ng/mL | Cmax [7]: 301 ng/mL and 324 ng/mL | Cmax (DL4 100 mg/day oral, day 28, individual patients, listed as Z-endoxifen HCl): 719 ng/mL | AUC(0-24h) [8]: 7200 ng·h/mL and 14650 ng·h/mL and 7425 ng·h/mL | C24h [8]: 209 ng/mL and 509 ng/mL and 216 ng/mL | Cmax [8]: 380 ng/mL and 957 ng/mL and 494 ng/mL | AUC(0-24h) [9]: 16591 ng·h/mL | Adjusted Half-Life [9]: 28.1 h | C24h [9]: 528 ng/mL | Cmax [9]: 1485 ng/mL and 881 ng/mL | Tmax [9]: 3.0 h | AUC(0-24h) [10]: 12520 ng·h/mL and 8804 ng·h/mL | C24h [10]: 457 ng/mL and 271 ng/mL | Cmax [10]: 299 ng/mL and 760 ng/mL and 492 ng/mL | AUC(0-24h) [11]: 16690 ng·h/mL and 52925 ng·h/mL and 22641 ng·h/mL | Adjusted Half-Life [11]: 61.6 h and 33.8 h | C24h [11]: 787 ng/mL and 1814 ng/mL and 606 ng/mL | Cmax [11]: 984 ng/mL and 2574 ng/mL and 1364 ng/mL | mean C24 h relative to the 5.9 ng/mL threshold associated with clinical benefit on tamoxifen (DL6, Day 28): more than 180 fold | AUC(0-24h) [12]: 15935 ng·h/mL and 10460 ng·h/mL and 11355 ng·h/mL and 13153 ng·h/mL and 13081 ng·h/mL and 24217 ng·h/mL and 16532 ng·h/mL | C24h [12]: 485 ng/mL and 345 ng/mL and 384 ng/mL and 467 ng/mL and 337 ng/mL and 687 ng/mL and 574 ng/mL | Cmax [12]: 825 ng/mL and 715 ng/mL and 887 ng/mL and 796 ng/mL and 1395 ng/mL and 1007 ng/mL | Tmax (DL8 360 mg oral, day 1, individual patients): 3.0 h | AUC(0-24h) [13]: 32079 ng·h/mL and 21926 ng·h/mL and 23576 ng·h/mL and 20747 ng·h/mL and 22520 ng·h/mL and 9274 ng·h/mL and 13704 ng·h/mL | C24h [13]: 1190 ng/mL and 722 ng/mL and 653 ng/mL and 801 ng/mL and 658 ng/mL and 213 ng/mL and 493 ng/mL | Cmax [13]: 1841 ng/mL and 1352 ng/mL and 1374 ng/mL and 1432 ng/mL and 1437 ng/mL and 780 ng/mL and 948 ng/mL | Tmax [13]: 3.0 h | Cmax, Mean (HCl salt, 360 mg oral, day 2 (after free base on day 1), mean of patients 35 and 36): 2360 ng/mL | AUC(0–24 h) (HCl salt, 360 mg oral, day 2 (after free base on day 1), patients 35 and 36 individually, listed as Z-endoxifen HCl): 23709 ng·h/mL and 59421 ng·h/mL | plasma concentration achieved by all patients (all dose levels): > 5.97 ng/mL | AUC(0–24h) dependence on dose (day 1, DL1-8): linear increase with dose | concentration at 24 h (human, plasma, oral, 20 mg, DL1, calculated from C24h in ng/mL, read-out: Plasma concentration 24 hours after the first dose): 67 nM | concentration at 28 day (human, plasma, oral, 20 mg, DL1, read-out: day 28 trough concentration, range): 48.8 to 207 ng/mL | concentration at 28 day (human, plasma, oral, 20 mg/day, DL1 (20 mg/day), day 28, read-out: average plasma concentration): 353 nM | concentration at 28 day (human, plasma, oral, 360 mg, DL8, if accumulation similar to lower dose levels, read-out: estimated day 28 concentration): 1220 ng/mL to 2970 ng/mL and 3.3 µM to 7.9 µM | concentration at 24 h (human, plasma, oral, 360 mg, DL8, calculated from C24h in ng/mL, read-out: Plasma concentration 24 hours after the first dose): 1810 nM | half-life (human, plasma, oral, range over dose levels, read-out: elimination half-life (t½)): 30.6 to 55.9 h | AUC(0-t) (human, plasma, po, 20 mg, DL1 20 mg oral, day 1, individual patients, read-out: AUC(0-24h)): 1030 ng·h/mL | concentration at 24 h (human, plasma, po, 20 mg, DL1 20 mg oral, day 1, individual patients, read-out: C24h): 25.2 ng/mL | Cmax (human, plasma, po, 20 mg, DL1 20 mg oral, day 1, individual patients, read-out: Cmax): 76.9 ng/mL | Tmax (human, plasma, po, 20 mg, DL1 20 mg oral, day 1, individual patients, read-out: Tmax): 3 h | AUC(0-t) (human, plasma, po, 20 mg, DL1 20 mg oral, day 1, mean, read-out: AUC(0-24h), Mean): 1080 ng·h/mL | concentration at 24 h (human, plasma, po, 20 mg, DL1 20 mg oral, day 1, mean, read-out: C24h, Mean): 30.2 ng/mL | Cmax (human, plasma, po, 20 mg, DL1 20 mg oral, day 1, mean, read-out: Cmax, Mean): 68.6 ng/mL | Tmax (human, plasma, po, 20 mg, DL1 20 mg oral, day 1, mean, read-out: Tmax, Mean): 3.7 h | AUC(0-t) (human, plasma, po, 20 mg/day, DL1 20 mg/day oral, day 28, individual patients, read-out: AUC(0-24h)): 2960 ng·h/mL | half-life (human, plasma, po, 20 mg/day, DL1 20 mg/day oral, day 28, individual patients, read-out: Adjusted Half-Life (converted)): 38.9 h | Cmax (human, plasma, po, 20 mg/day, DL1 20 mg/day oral, day 28, individual patients, read-out: Cmax): 201 ng/mL | AUC(0-t) (human, plasma, po, 20 mg/day, DL1 20 mg/day oral, day 28, mean, read-out: AUC(0-24h), Mean): 4250 ng·h/mL | half-life (human, plasma, po, 20 mg/day, DL1 20 mg/day oral, day 28, mean, read-out: Adjusted Half-Life, Mean (converted)): 55.9 h | concentration at 24 h (human, plasma, po, 20 mg/day, DL1 20 mg/day oral, day 28, mean, read-out: C24h, Mean): 132 ng/mL
